“Also recorded” adds a separate entry of the source. Like-named read-outs stand apart in the source and are kept apart here.
Legend:
A2780 cells = test: Intracellular accumulation of DOX and Flutax-2 in A2780; assay type: cell-based, human; settings: parental A2780, 7.53 μM tangeretin, 8 h
Protocol: (§1) A2780 or A2780/T cells (5×10^6) were cultured on the cover glass (ISO LAB 20×20 mm). […] After treatment, cells were fixed in 4 wt % formaldehyde (Sigma-Aldrich). Nuclear DNA was stained with 1 μg/mL blue-fluorescent DAPI (1 mg/mL in H2O stock solution; Invitrogen D1306). One drop of fluorescent preservation solution (fluorsave reagent, CALBIOCHEM) was added before observation. Imaging was carried out for comparing the intracellular accumulation of DOX and flutax-2 with a Fluorescence Microscopy (Leica DM2500, Leica, Germany).
Cells were detached, re-suspended in 500 μl of PBS after washed twice with cold PBS, and analyzed by flow cytometry (BD FACS Aria, BD Biosciences, San Jose, Calif.). Excitation and emission wavelengths (nm) used for DOX and flutax-2 were as follows: 480 to 585; and 496 to 524. Quinidine (QND, 20 μM), a known ABCB1 inhibitor, was used as a positive control.

[1] = human, plasma; cited from earlier work
[2] = tested on: MDR1 mRNA / ABCB1 protein in A2780/T cells; test: RT-PCR and Western blot of ABCB1 expression; assay type: cell-based, human; settings: tangeretin 0.83-7.53 μM, 48 hours
Protocol: RT-PCR was performed to evaluate MDR1 mRNA expression. mRNA from cell lysates were purified by binding to poly(dT) magnetic beads (Life technologies) and reverse transcribed by using SuperScript II (Life technologies). Standard quantitative RT-PCR was performed in duplicates at least two to three times by using SYBR Green (Molecular Probes) protocols on the ViiA™ 7 Real-Time PCR System (Life technologies). The primer sequences: 5′-[…]-3′ (SEQ ID […] NO:1) and 3′-[…]-5′ (SEQ ID NO:2) for MDR1, and 5′-[…]-3′ (SEQ ID NO:3) and 3′-[…]-[…]-5′ (SEQ ID NO:4) for control gene eukaryotic translation initiation factor (TIF). RT-PCR data was normalized by measuring average cycle threshold (Ct) ratios between candidate genes and control gene TIF.
The total cellular samples were harvested and rinsed twice with ice-cold PBS buffer. Cell extracts were lysed in RIPA buffer (50 mM Tris (pH 7.4), 150 mM NaCl, 1% Triton X-100, 1% sodium deoxycholate, 0.1% SDS, sodium orthovanadate, sodium fluoride and EDTA) containing protease inhibitor cocktails (Roche Life Science, USA). Protein concentration was determined using the BCA protein assay kit. Equal amounts of cell lysates were resolved by SDS-PAGE and subsequently electrophoretically transferred onto PVDF membranes (Millipore, Darmstadt, Germany). […]

A2780/T cells [3] = test: Intracellular accumulation of DOX and Flutax-2 in A2780/T; assay type: cell-based, human; settings: 8 h, 7.53 μM tangeretin or 20 μM QND
Protocol: as §1, with “cells” for “A2780 or A2780/T cells”, “Germany). […] Cells were detached, re-suspended in 500 μl of PBS after washed twice with cold PBS, and analyzed by flow cytometry (BD FACS Aria, BD Biosciences, San Jose, Calif.). Excitation and emission wavelengths (nm) used for DOX and flutax-2 were as follows: 480 to 585; and 496 to 524.” for “Germany).”

A2780/T cells [4] = test: Combination index, Chou-Talalay method (CalcuSyn); assay type: cell-based, human; settings: Homo sapiens, read-out: Dose tangeretin at Fa 0.5 (ED50), CalcuSyn simulation, alone or in combination
Protocol: Combination index (CI) was calculated to quantitatively depict synergistic ([…], additive (CI=1), or antagonistic (CI>1) effect. With the use of CalcuSyn software v. 2.1 (Bio-soft), synergy is further refined as synergism (combination index=0.3-0.7), strong synergism (combination index=0.1-0.3), and very strong synergism (combination index<0.1).

[5] = target: T1, recombinant human ABCB1 membranes (Homo sapiens, UniProt P08183); test: ABCB1 ATPase activity assay (Pgp-Glo); assay type: biochemical
T1 construct: purchased Promega
T1 sequence (P08183 whole entry): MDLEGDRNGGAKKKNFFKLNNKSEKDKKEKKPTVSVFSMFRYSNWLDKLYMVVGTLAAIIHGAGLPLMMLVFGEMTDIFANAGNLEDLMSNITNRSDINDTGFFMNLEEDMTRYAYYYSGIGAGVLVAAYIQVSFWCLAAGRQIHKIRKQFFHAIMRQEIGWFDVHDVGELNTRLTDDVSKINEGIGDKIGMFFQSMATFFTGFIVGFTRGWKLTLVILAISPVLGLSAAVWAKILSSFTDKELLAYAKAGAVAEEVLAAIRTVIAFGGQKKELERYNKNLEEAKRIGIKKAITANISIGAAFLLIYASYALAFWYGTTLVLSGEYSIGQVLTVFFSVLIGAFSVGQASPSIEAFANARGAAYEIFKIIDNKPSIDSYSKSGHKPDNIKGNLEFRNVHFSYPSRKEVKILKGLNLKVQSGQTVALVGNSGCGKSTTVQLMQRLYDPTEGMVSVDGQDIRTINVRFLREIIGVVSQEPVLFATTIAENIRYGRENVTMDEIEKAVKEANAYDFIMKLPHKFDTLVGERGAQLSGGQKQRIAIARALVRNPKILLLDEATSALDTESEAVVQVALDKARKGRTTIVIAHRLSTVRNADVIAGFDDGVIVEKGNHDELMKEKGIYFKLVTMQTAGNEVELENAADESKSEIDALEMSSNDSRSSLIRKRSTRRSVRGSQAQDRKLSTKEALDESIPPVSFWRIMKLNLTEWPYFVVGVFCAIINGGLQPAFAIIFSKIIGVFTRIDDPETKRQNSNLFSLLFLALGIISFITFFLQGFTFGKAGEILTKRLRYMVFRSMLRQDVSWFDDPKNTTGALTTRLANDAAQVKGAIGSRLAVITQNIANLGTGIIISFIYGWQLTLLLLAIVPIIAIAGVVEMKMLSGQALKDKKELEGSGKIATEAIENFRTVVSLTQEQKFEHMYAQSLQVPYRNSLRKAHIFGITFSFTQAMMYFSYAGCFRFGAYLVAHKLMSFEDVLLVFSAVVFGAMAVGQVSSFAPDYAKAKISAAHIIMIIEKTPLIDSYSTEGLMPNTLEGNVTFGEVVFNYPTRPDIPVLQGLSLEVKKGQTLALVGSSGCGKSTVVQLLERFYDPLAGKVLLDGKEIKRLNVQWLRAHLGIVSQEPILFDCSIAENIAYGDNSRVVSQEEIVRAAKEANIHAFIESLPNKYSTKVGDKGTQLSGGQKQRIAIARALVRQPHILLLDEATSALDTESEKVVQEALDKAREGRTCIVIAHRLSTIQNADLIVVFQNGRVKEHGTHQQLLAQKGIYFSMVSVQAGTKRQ
Protocol: Sodium orthovanadate (Na3VO4) was used as an ABCB1 ATPase inhibitor. […] Luminescence was initiated by ATP detection buffer. The plate (white opaque 96-well, corning, USA) was further incubated at room temperature for […] to develop luminescent signal, and was read with luminometer (infinite M200 PRO,TECAN, Switzerland).

in vitro [6] = settings: human, A2780 cells
A2780/T cells [7] = test: Cell cycle analysis by flow cytometry in A2780/T; assay type: cell-based, human; settings: tangeretin 7.53 μM alone
Protocol: A2780/T cells were harvested after 24-hours, 48-hour, or 72-hour treatment and washed twice with ice-cold PBS. The cells were fixed and permeabilized with 70% ice-cold ethanol overnight at 4° C. or −20° C. for 2 h. After one additional wash in PBS, cells were stained with a staining solution containing PI ([…]) and RNase A (250 μg/ml) for […] at room temperature. They were then pelleted, washed and suspended in PBS to a final concentration of 1×10^6/ml and analyzed by flow cytometry (BD FACS Aria, BD Biosciences, San Jose, Calif.).

p53 = test: Western blot of p53 expression; assay type: cell-based, human; settings: tangeretin at various concentrations, 48 hours, Western blot
Protocol: The total cellular samples were harvested and rinsed twice with ice-cold PBS buffer. Cell extracts were lysed in RIPA buffer (50 mM Tris (pH 7.4), 150 mM NaCl, 1% Triton X-100, 1% sodium deoxycholate, 0.1% SDS, sodium orthovanadate, sodium fluoride and EDTA) containing protease inhibitor cocktails (Roche Life Science, USA). Protein concentration was determined using the BCA protein assay kit. Equal amounts of cell lysates were resolved by SDS-PAGE and subsequently electrophoretically transferred onto PVDF membranes (Millipore, Darmstadt, Germany). After blocking in tris-buffered saline containing 0.1% of Tween20 (TBST) with 5% (w/v) skim milk (Nestle Carnation, New Zealand) for 2 h at room temperature, the membranes were incubated with primary and secondary antibodies and subsequently visualized with an enhanced chemiluminescence detection kit (Thermo Scientific™ SuperSignal™ West Pico Chemiluminescent Substrate, USA). β-Actin was used as the loading control for the experimental data analysis.

in vitro [8] = settings: human, A2780/T cells
Protocol: (§2) Sulphorhodamine B (SRB) assays were carried out as previously described to assess cell density, based on sensitive measure of total cellular protein, which performed similarly compared with other proliferation assays such as MTT assay. Briefly, cells were seeded into flat bottomed 96-well plates at an initial density of 7.5×10^3 per well before treatment. […] After removing the medium, cells were fixed in 10% trichloroacetic acid for 1 h at 4° C. and then washed with water five times. 0.4% SRB dissolved in 1% v/v acetic acid was added and incubated 30 mm for staining. The cells were quickly washed with 1% acetic acid and left to dry overnight. The protein bound SRB was solubilized by adding 200 μl 10 mM Tris buffer per well and measured at wavelengths 490 nm using a plate reader (Spectra MAX 250; Molecular Devices, Sunnyvale, Calif.).

[9] = rat, plasma; cited from earlier work
[10] = target: P-gp (ABCB1 transporter) in Caco-2 cells (Homo sapiens, UniProt P08183)
Chain of P-gp (ABCB1 transporter) in Caco-2 cells (P08183 whole entry): as above

A2780/T cells [11] = test: Apoptosis by Annexin-V/PI double staining; assay type: cell-based, human
Protocol: After treatment, 1×10^6 cells were collected, washed and suspended in 100 μl of binding buffer (10 mM N-2-hydroxyethylpiperazine-N,-2-ethanesulfonic acid/NaOH, 140 mM NaCl, 2.5 mM CaCl2, pH 7.4). Apoptotic cells were identified by double supravital staining with 5 μl recombinant FITC (fluorescein isothiocyanate)-conjugated Annexin-V and 5 μl PI (50 μg/ml). The cells were stained for […] at room temperature in the dark, and analyzed by fluorescence-activated cell sorting cater-plus flow cytometry. Data acquisition and analysis were performed in BD FACS Aria with FlowJo software.

A2780/T cells [12] = test: SRB cell cytotoxicity assay in A2780/T; settings: tangeretin at 7.53 μM, all cell lines
Protocol: as §2

Compound: COc1ccc(-c2cc(=O)c3c(OC)c(OC)c(OC)c(OC)c3o2)cc1 [Tangeretin, 5,6,7,8,4′-pentamethoxyflavone]
- DOX and Flutax-2 levels (A2780 cells): did not significantly alter; also recorded: no effect
- Cmax [1]: 1000 to 5000 nM
- mRNA or protein level of ABCB1 [2]: did not influence
- mRNA or protein level of ABCB1 ([2]; listed as tangeretin): did not alter
- intracellular accumulations of DOX and Flutax-2 (A2780/T cells [3]): remarkably enhanced; also recorded: higher than that of untreated A2780/T
- EC50 (A2780/T cells [4]): 67.5 µM
- IC50 ([5]; 200 μM verapamil, read-out: IC50 for inhibiting verapamil-stimulated P-gp ATPase activity): 7.87 µM
- EC50 ([5]; recombinant human ABCB1 membranes, 37° C., 40 min, read-out: EC50 for stimulating P-gp ATPase activity): 11.6 µM
- maximal stimulation of ATPase activity ([5]; relative to the basal activity): 3 fold
- IC50 (in vitro [6]): 35.6 µM
- effect on the cell cycle (A2780/T cells [7]): no effect
- p53 expression (p53): unregulated the p53 expression
- IC50 (in vitro [8]): 36.4 µM
- Cmax [9]: 1000 to 5000 nM
- inhibitory effect on efflux compared with 20 μM QND [10]: more potent than that of QND
- inhibitory effect on efflux compared with 20 μM QND ([10]; human, 2 h, 2.51 μM): stronger than that of 20 μM QND
- apoptosis induction, single treatment (A2780/T cells [11]; 7.53 μM tangeretin or 0.94 μM PTX alone): did not show apoptosis induction
- apoptosis induced by 0.94 μM PTX (A2780/T cells [11]; with 0.83, 2.51 and 7.53 μM tangeretin, A2780/T): significantly increase apoptosis
- cells survived (A2780/T cells [12]): more than 90%

— patent publication US9808439B2 (Macau University of Science and Technology, priority 2015, dated 2017)
